US10034854B2, “Pharmaceutical composition with improved bioavailability” (Hoffmann-La Roche Inc., priority 2013, dated 2018)
Values after ≈ are worked out from the molar mass of the structure shown. Read-outs that look alike come from different tables or passages of the source.

Columns and labels:
[1] = Salt screening: solubility of various salts of Compound A; details: for solubility: salts of Compound A, at the pH of the same line
[2] = Pharmacokinetics / bioavailability in monkeys; details: IV, 1.25 mg/kg, fed
[3] = Aqueous solubility of crystalline Compound A at physiological pHs; assay type: physicochemical
[4] = Caco-2 assay (permeability); assay type: in vitro ADME; details: human
Excerpt: The permeability of the compound is not high as determined with the Caco-2 assay value of 0.8×10^−6 cm/s. The poor solubility and the targeted high doses/frequency of dosing for this series of compounds led to the categorization of Compound A as BCS class IV compound (poor solubility/poor permeability).

[5] = Solubility in bio-relevant fluids (FaSSIF, FeSSIF); assay type: physicochemical; details: thermodynamic from solid, 37° C.
Experimental: Approximately 5 mg of Compound A as MBP was placed in 20 mL of 37° C. bio-relevant fluids (Fasted State Simulated Intestinal Fluid and Fed State Simulated Intestinal Fluid) and was filtered through a 0.2 μm filter over time. The filtrate was then analyzed by HPLC.

[6] = Animal pharmacokinetics study of formulations (FIG. 3); details: oral formulations
[7] = pH belonging to the solubility value of the salt

[K+] [Potassium]
pH [1, 7]: 8.0
solubility [1]: 0.5 µg/mL

Sodium
pH [1, 7]: 7.2
solubility [1]: 0.7 µg/mL

COc1cc(C(=O)O)ccc1NC(=O)[C@@H]1N[C@@H](CC(C)(C)C)[C@](C#N)(c2ccc(Cl)cc2F)[C@H]1c1cccc(Cl)c1F [Compound A, 4-{[(2R,3S,4R,5S)-4-(4-Chloro-2-fluoro-phenyl)-3-(3-chloro-2-fluoro-phenyl)-4-cyano-5-(2,2-dimethyl-propyl)-pyrrolidine-2-carbonyl]-amino}-3-methoxy-benzoic acid]
% AUC Extrap [2]: 0.7%
AUC/Dose [2]: 10.3 µg·h/mL/mg/kg
solubility ([3]; aqueous medium, aqueous buffer, crystalline form, physiological pHs (pH 1.5-7.0)): < 0.05 µg/mL
solubility ([3]; pH 1.5, aqueous buffer, crystalline forms, in water at physiological pHs (pH1.5-8.0)): < 0.05 µg/mL
Papp [4]: 0.8 ×10⁻⁶ cm/s

COc1cc(C(=O)O)ccc1NC(=O)[C@@H]1N[C@@H](CC(C)(C)C)[C@](C#N)(c2ccc(Cl)cc2F)[C@H]1c1cccc(Cl)c1F [Crystalline Form, 4-{[(2R,3S,4R,5S)-4-(4-Chloro-2-fluoro-phenyl)-3-(3-chloro-2-fluoro-phenyl)-4-cyano-5-(2,2-dimethyl-propyl)-pyrrolidine-2-carbonyl]-amino}-3-methoxy-benzoic acid]
solubility ([5]; Fasted State Simulated Intestinal Fluid (FaSSIF), FaSSIF): 2 µg/mL (≈ 3.24 µM)
solubility ([5]; Fed State Simulated Intestinal Fluid (FeSSIF), FeSSIF): 3 µg/mL (≈ 4.87 µM)

Cc1ccc(S(=O)(=O)O)cc1 [p-Toluenesulfonic acid]
pH [1, 7]: 2.7
solubility [1]: <0.02 µg/mL

CNC[C@H](O)[C@@H](O)[C@H](O)[C@H](O)CO [Meglamine]
aqueous solubility (in words) ([1]; among the salts identified in salt screening): most improved aqueous solubility
pH [1, 7]: 7.8
solubility [1]: >1400 µg/mL
bioavailability (exposure) (in words) [6]: not improved

CS(=O)(=O)O [Methanesulfonic acid (Mesylate)]
pH [1]: 3.1
